From article PMC11587510, “Aromatic Amino Acid Hydroxylases as Off-Targets of Histone Deacetylase Inhibitors” (ACS Chemical Neuroscience, 2024)
Where “and” joins values, the source holds several entries; their conditions need not be identical. Equal entries are not always repeated. Where two headings read alike, the source gives them in different places.

Assays:
[1] = molecular target: T1, TPH1 (Homo sapiens, UniProt P17752); test: Differential scanning fluorimetry (DSF) thermal stability assay; type: binding; settings: for Tm (°C) ± SD (°C), primary screen: 0.075 mg/mL TPH1, 0.5% DMSO, three independent measurements (a: duplicates); for Kd: estimated from DSF dose-response, 2% DMSO, read-out: apparent KD (μM), dose-response
T1 construct: doubly truncated human TPH1 (ΔNH102-ΔCOOH402); made in house; host or cells: E. coli BL21(DE3)
T1 sequence (P17752 102-402): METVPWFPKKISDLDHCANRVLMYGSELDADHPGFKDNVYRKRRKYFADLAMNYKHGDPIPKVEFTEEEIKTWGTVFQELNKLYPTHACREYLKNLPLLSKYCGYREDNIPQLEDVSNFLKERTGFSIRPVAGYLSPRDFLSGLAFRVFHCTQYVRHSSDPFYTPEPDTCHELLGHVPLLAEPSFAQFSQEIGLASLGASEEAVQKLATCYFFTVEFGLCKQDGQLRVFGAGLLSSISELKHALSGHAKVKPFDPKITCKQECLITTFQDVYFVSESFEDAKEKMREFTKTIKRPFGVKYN
Method: A fluorescence-based thermal stability assay (differential scanning fluorimetry, DSF) was used for testing the effects of HDIs on the thermal stability of TPH1.
For initial high throughput screening (HTS), compounds were prepared at a concentration of 10 mM (in some cases, 5 mM) in 100% DMSO. Initial HTS screening was performed on TPH1 with and without compounds using a LightCycler 480 Real-Time PCR System (Roche Applied Science). TPH1 was diluted to 0.075 mg/mL in 50 mM Tris pH 8.0, 200 mM NaCl, 0.5 mM TCEP, and 5% glycerol with 5x SYPRO Orange. Compounds were added to a final concentration of 50 μM. Controls with 0.5% DMSO were performed on each 384-well microplate. Unfolding curves were recorded from 20 to 95 °C at a scan rate of 2 °C/min and monitored at excitation = 465 nm and emission = 610 nm. Selected hits were validated further by serial dilution from 250 μM to 122 nM, keeping the DMSO concentration constant at 2%.
DSF data were analyzed using HTSDSF Explorer.[55] Melting temperature (Tm) was calculated from the maximum value of the first derivative of the unfolding curve. ΔTm (Tm with compound–averaged Tm in DMSO controls) was plotted for all validated curves and a threshold of 2 °C was set (typically, cutoff at ΔTm = 3-fold the SD of the Tm of the DMSO control).
Preliminary binding constants (KD) were calculated by fitting data to the equation [drawing 1] where ΔH0 is the enthalpy of the unfolding of the protein in the presence of ligand ([L]), and R is the gas constant.

[2] = molecular target: T2, human PAH (Homo sapiens, UniProt P00439); test: PAH enzyme activity assay (HPLC, L-Tyr); type: biochemical; settings: best-fit IC50 (± SE), nonlinear regression; N.A. = no activity; read-out: IC50 (μM) PAH
T2 construct: Full-length human TH isoform 1 (TH1), human PAH, human TPH2, and doubly truncated human TPH1; made in house; host or cells: E. coli TB1
T2 sequence (P00439 1-452): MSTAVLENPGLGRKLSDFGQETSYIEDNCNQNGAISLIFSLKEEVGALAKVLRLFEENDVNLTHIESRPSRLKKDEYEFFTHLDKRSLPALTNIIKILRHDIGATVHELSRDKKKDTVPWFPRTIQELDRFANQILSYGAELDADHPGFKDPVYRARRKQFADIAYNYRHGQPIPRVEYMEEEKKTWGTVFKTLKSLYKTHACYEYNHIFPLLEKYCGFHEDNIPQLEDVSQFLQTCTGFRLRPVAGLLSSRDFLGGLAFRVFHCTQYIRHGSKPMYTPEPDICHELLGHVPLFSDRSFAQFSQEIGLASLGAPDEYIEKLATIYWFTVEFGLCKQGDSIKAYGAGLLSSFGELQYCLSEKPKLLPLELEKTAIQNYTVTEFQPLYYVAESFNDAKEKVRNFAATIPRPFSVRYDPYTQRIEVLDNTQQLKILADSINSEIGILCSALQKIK

[3] = molecular target: T3, doubly truncated human TPH1 (ΔNH102-ΔCOOH402) (Homo sapiens, UniProt P17752); test: TPH1 enzyme activity assay (HPLC, 5-OH-Trp); type: biochemical; settings: for IC50: best-fit IC50 (± SE), nonlinear regression, N.A. = no activity
T3 construct: doubly truncated human TPH1 (ΔNH102-ΔCOOH402); made in house; host or cells: E. coli BL21(DE3)
T3 sequence (P17752 102-402, stated change not applied): as the sequence (P17752 102-402) above
Method: (§1) TPH1 enzymatic activity assays were performed with the selected hits from the DSF screening in the presence and absence of 50 μM of each compound. The final concentration of DMSO was 0.5% (v/v), and control experiments used 0.5% DMSO in the absence of ligand. Assays were performed in a standard reaction mixture containing 40 mM Hepes pH 7.0, 200 mM NaCl, 0.1 mg/mL catalase, 0.5 mg/mL BSA, 10 μM ferrous ammonium sulfate, and 30 μM L-tryptophan (L-Trp). Compounds were incubated with TPH1 (0.02 mg/mL) in the reaction mixture for 10 min on ice.

[4] = molecular target: T4, human TPH2 (Homo sapiens, UniProt Q8IWU9); test: TPH2 enzyme activity assay (HPLC); type: biochemical; settings: best-fit IC50 (± SE), nonlinear regression; N.A. = no activity
T4 construct: Full-length human TH isoform 1 (TH1), human PAH, human TPH2, and doubly truncated human TPH1; MBP (cleaved yes); made in house; host or cells: E. coli BL21(DE3)
T4 sequence (Q8IWU9 1-490): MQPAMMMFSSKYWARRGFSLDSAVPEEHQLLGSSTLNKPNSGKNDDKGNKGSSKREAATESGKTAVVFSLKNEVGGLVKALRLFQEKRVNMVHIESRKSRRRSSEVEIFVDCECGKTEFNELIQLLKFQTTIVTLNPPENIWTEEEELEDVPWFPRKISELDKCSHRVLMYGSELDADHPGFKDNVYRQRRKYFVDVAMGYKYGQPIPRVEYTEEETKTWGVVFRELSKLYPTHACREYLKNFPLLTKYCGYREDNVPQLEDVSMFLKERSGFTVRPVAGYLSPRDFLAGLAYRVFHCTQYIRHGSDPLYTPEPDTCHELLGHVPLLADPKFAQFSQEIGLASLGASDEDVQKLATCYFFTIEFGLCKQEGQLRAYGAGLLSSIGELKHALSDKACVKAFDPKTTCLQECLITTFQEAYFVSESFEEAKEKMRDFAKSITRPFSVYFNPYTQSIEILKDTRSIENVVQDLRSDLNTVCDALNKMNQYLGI
Method: as §1

[5] = molecular target: T5, human TH isoform 1 (TH1) (Homo sapiens, UniProt P07101); test: TH enzyme activity assay (HPLC, L-DOPA); type: biochemical; settings: best-fit IC50 (± SE), nonlinear regression; N.A. = no activity
T5 construct: Full-length human TH isoform 1 (TH1); His6-ZZ fusion partner (one of the two preparations only) (cleaved yes); made in house; host or cells: E. coli BL21(DE3) pLysS (pET3a) or BL21 CodonPlus (pET-ZZ-1a)
T5 sequence (P07101 1-497 isoform P07101-3): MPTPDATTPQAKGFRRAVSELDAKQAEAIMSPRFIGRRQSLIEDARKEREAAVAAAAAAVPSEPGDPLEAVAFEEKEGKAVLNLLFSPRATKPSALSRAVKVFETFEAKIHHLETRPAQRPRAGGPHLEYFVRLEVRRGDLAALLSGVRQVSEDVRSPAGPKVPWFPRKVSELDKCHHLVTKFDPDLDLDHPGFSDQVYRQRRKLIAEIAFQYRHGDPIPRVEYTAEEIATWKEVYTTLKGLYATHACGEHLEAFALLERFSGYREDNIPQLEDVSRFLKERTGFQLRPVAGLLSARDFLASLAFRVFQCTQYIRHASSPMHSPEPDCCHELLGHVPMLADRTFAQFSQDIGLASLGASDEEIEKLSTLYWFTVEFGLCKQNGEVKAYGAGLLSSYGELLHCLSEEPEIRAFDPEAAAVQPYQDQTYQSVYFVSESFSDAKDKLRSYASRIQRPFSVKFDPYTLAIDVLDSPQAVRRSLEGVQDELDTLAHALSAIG
Method: The activity of purified PAH, TH, TPH1, and TPH2 was measured using high-performance liquid chromatography (HPLC) as previously described.[50],[56],[57]
TH activities were performed in a standard reaction mixture containing 40 mM Hepes (pH 7.0), 0.1 mg/mL catalase, 10 μM ferrous ammonium sulfate, and 50 μM L-Tyr. Compounds were incubated with TH (0.01 mg/mL) in the reaction mixture for 10 min on ice. The enzymatic reaction was initiated by adding 200 μM BH4 and 2 mM DTT (final concentrations) and stopped by precipitation with 2% (v/v) acetic acid in ethanol after 5 min at 37 °C. The product, L-DOPA, was quantified by HPLC utilizing a fluorescence monitor set at 281 and 314 nm for excitation and emission, respectively.
GraphPad Prism (version 10; La Jolla, CA) was used for analyzing the enzyme inhibition data.

[6] = system: HDAC 1; settings: cited from earlier work
[7] = system: HDAC 6; settings: cited from earlier work
[8] = system: HDAC 8; settings: human recombinant HDAC, cited from earlier work
[9] = human recombinant HDAC, ref 1 (PMID: 26443078)

| ΔTm at 50 µM ([1]; DSF, 50 μM compound, vs averaged Tm of 0.5% DMSO controls, read-out: ΔTm (°C) ± SD (°C), primary screen) | inhibition at 50 µM ([3]; compound 50 μM, 0.5% DMSO) | Compound | Tm (°C) ± SD (°C), primary screen ([1]; DSF, 50 μM compound) | ΔTm (°C) ± SD (°C), primary screen ([1]; DSF, 50 μM compound, vs averaged Tm of 0.5% DMSO controls) | Kd [1] | IC50 [2] | IC50 [3] | inhibition of TPH1 activity at 50 μM ([3]; compound 50 μM, 0.5% DMSO) | IC50 [4] | IC50 [5] | HDAC 1 % inhibition @ 1 μM ([6]; @ 1 μM, ref 4 (PMID: 34392190)) | HDAC 6 % inhibition @ 1 μM ([7]; @ 1 μM, ref 4 (PMID: 34392190)) | IC50 ([8]; ref 4 (PMID: 34392190)) | IC50 [6, 9] | IC50 [7, 9] | IC50 ([8]; ref 1 (PMID: 26443078)) |
| --- | --- | --- | --- | --- | --- | --- | --- | --- | --- | --- | --- | --- | --- | --- | --- | --- |
|  |  | O=C(NO)c1ccc(Cl)c(C(=O)Nc2ccc(Cl)cc2)c1 [EG22, 4-Chloro-3-(4-chlorophenylcarbamoyl)-N-hydroxybenzamide] | 59.4 ± 0.3 °C | 3.9 ± 0.2 °C | 15.2 µM | 0.89 µM and 0.9 µM | 35.8 µM | more than 50% | 10.7 µM | 14.7 µM | 20 ± 1% | 94 ± 4% | 0.18 ± 0.05 µM |  |  |  |
| […] | > 50% | Cc1[nH]c2ccccc2c1CCNCc1ccc(/C=C/C(=O)NO)cc1 [panobinostat, reference compound] | 56.0 ± 0.0 °C |  | 15.6 µM | 0.57 µM and 0.6 µM | […] |  | 43.6 µM | 8.67 µM and 8.7 µM |  |  |  | […] | […] | […] |
